Measured values reported in patent US20050020630A1, “Cycloalkyl and heterocycloalkyl substituted benzothiophenes as therapeutic agents” (priority 2003, published 2005).

The compounds below were run against T1, PI3Kγ (Homo sapiens, UniProt P48736) (assay: PI3Kγ In Vitro Kinase Assay). Conditions: purified recombinant p101/p110 γ protein with G protein β1/γ2 subunits; 20 μM ATP, 25 μM PIP2; 20 minutes at room temperature; radioactive PIP3 readout.
T1 construct: HA; made in house; host or cells: Spodoptera frugiperda (Sf9) cells, baculovirus co-infection
T1 sequence (P48736 whole entry, species assumed): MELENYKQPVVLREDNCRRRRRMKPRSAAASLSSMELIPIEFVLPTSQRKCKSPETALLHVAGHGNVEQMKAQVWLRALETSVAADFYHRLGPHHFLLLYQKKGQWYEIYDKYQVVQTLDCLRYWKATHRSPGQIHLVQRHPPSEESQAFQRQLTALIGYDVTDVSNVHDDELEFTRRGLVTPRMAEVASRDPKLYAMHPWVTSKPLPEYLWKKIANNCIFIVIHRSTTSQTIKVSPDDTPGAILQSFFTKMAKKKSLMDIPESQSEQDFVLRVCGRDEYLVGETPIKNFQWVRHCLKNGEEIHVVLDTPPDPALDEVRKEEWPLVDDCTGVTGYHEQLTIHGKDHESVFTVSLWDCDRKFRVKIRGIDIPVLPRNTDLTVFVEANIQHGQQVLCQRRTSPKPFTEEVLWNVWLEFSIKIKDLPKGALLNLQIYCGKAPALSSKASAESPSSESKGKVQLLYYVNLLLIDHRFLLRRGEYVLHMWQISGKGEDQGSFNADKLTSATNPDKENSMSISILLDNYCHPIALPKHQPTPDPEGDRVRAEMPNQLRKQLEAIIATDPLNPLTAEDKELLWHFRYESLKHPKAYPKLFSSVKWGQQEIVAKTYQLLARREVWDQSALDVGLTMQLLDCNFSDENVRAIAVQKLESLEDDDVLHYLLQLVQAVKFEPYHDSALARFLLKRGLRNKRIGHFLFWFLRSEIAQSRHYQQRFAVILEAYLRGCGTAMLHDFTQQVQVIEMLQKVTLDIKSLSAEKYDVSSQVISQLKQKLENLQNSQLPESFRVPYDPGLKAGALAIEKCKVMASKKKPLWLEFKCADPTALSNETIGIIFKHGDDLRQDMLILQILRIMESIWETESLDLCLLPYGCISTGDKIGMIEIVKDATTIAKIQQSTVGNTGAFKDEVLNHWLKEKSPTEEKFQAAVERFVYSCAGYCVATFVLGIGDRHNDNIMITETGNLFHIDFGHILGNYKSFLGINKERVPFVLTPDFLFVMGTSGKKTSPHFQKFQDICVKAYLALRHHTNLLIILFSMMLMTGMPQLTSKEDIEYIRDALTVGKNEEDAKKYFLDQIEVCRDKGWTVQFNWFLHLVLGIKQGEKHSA
T1 sequence (Q8WYR1 whole entry partner, species assumed): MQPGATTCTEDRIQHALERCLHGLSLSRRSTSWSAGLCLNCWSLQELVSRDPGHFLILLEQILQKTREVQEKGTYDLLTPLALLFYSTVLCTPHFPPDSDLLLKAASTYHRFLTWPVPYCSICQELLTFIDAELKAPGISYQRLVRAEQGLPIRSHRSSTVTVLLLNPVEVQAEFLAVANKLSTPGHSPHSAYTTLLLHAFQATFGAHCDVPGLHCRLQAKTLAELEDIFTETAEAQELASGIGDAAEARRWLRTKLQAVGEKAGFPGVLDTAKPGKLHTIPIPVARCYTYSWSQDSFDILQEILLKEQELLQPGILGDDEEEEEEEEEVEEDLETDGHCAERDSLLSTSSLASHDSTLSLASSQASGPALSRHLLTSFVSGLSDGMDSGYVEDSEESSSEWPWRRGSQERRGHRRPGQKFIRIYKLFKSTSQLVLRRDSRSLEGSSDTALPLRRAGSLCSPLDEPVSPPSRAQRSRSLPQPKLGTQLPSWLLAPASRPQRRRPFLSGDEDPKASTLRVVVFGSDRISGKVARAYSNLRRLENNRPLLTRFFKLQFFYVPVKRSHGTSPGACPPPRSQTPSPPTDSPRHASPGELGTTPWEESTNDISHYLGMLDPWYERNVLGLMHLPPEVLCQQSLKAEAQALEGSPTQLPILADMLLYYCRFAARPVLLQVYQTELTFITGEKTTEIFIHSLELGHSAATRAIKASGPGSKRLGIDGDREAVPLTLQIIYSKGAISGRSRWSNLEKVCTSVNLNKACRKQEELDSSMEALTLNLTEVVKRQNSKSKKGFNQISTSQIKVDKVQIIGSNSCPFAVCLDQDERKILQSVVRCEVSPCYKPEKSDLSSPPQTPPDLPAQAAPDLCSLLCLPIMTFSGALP
Assay type: biochemical
Protocol: Spodtera frugiperda cells, grown in ESF921 media, were coinfected with baculovirus expressing a glu-tagged p101 and baculovirus expressing an HA-tagged p110γ, at a 3:1 ratio of p101 baculovirus to p110γ baculovirus. Sf9 cells were grown to 1×10^7 total cells/mL in 10 L bioreactors and harvested 48-72 hours post infection. Samples of infected cells were then tested for expression of p101/p110 γ PI3 kinase by immunoprecipitation and Western Blot analysis methods (see below). To purify PI3Kγ, 4 volumes of room temperature hypotonic lysis buffer (1 mM MgCl2, 1 mM DTT, 5 mM EGTA, 1 mM Pefabloc, 0.5 μM aprotinin, 5 μM leupeptin, 2 μM pepstatin, 5 μM E64, pH 8) per gram of cell paste, was poured onto frozen cell pellets with stirring, then lysed in a nitrogen “bomb” at 400 psi (599HC […], Parr Instrument Co, Moline, Ill.). NaCl was added to 150 mM, and sodium cholate was added to 1% and mixed for another 45 minutes. The lysates were clarified by centrifugation for 25 minutes at 14,000 rpm. The lysates were then loaded over anti-glu-linked Protein-G Sepaharose beads (Covance Research Products, Richmond, Calif.) using 20 mL resin/50 g cell paste. The column was washed with 15 volumes of wash buffer (1 mM DTT, 0.2 mM EGTA, 1 mM Pefabloc, 0.5 μM aprotinin, 5 μM leupeptin, 2 μM pepstatin, 5 μM E64, 150 mM NaCl, 1% sodium cholate, pH 8). PI3Kγ was eluted with 6 column volumes of wash buffer that contain 100 μg/mL of a peptide that competes for binding of the glu tag. The column fractions with the eluted protein (determined by taking OD280 readings) were collected and dialyzed in 0.2 mM EGTA, 1 mM DTT, 1 mM Pefabloc, 5 μM leupeptin, 0.5% sodium cholate, 150 mM NaCl, and 50% glycerol, pH 8. The fractions were stored at -80° C. until further use. Spodtera frugiperda cells were coinfected with baculovirus expressing a glu-tagged G protein β1 and baculovirus expressing a G protein β2, at a 1:1 ratio of glu-tagged G protein β1 baculovirus to G protein β2 baculovirus. Sf9 cells are grown in 10 L bioreactors and harvested 48-72 hours post infection. Samples of infected cells were tested for G protein β1/β2 expression by Western Blot analysis, as described below. Cell lysates were homogenized and loaded onto a column of glu-tagged beads as in Biological Example 1 and competed off the column with a glu peptide and processed as described in Biological Example 1. The inhibitory properties of the compounds in Table 1 were assayed in an in vitro PI3K assay. In a 96-well polypropylene plate, each well was spotted with 2 μL of 50 times the desired final concentration of compound in DMSO. Purified recombinant p101/p110 γ protein (0.03 μg; 2.7 nM) and G protein β1/γ2 subunits (0.09 μg; 57.7 nM) for each reaction was combined in the assay buffer (30 mM HEPES, 100 mM NaCl, 1 mM EGTA, and 1 mM DTT). ATP and [γ-^32P-ATP] (0.09 μCi) were added to this mixture so that the final ATP concentration in the reaction was 20 μM. Lipid micelles were formed by sonicating phosphatidylinositol-4,5-diphosphate (PIP2), phosphatidylethanolamine (PE), and Na-cholate in the assay buffer for 10 minutes, adding MgCl2 and incubating on ice for 20 minutes, for final concentrations of 25 μM PIP2, 300 μM PE, 0.02% Na-cholate, and 10 mM MgCl2 in the reaction. The reactions were started by adding equal volumes lipid and enzyme mixture in a total volume of 50 μL, allowed to run for 20 minutes at room temperature, and stopped with 100 μL 75 mM H3PO4. The lipid product was transferred to a glass fiber filter plate and washed with 75 mM H3PO4 several times. The presence of radioactive lipid product (PIP3) was measured by adding Wallac Optiphase mix to each well and counting in a Wallac 1450 Trilux plate reader (PerkinElmer Life Sciences Inc., Boston, Mass. 02118). The IC50 for each compound tested is reported in μM in Table 1: […]

| IC50 [µM] | Compound |
| --- | --- |
| 0.025 | COc1cc2c(OC3CCN(C(C)=O)CC3)c(C(=O)Nc3nn[nH]n3)sc2cc1C [Example 16, 3-(1-Acetyl-piperidin-4-yloxy)-5-methoxy-6-methyl-benzo[b]thiophene-2-carboxylic acid (2H-tetrazol-5-yl)-amide] |
| 0.036 | 3-Cycloheptylmethoxy-5,6-dimethoxy-benzo[b]thiophene-2-carboxylic acid (1H-tetrazol-5-yl)-amide [Example 42] |
| 0.195 | COc1cc2sc(C(=O)Nc3nnn[nH]3)c(OCC3CCCCC3)c2cc1OC [Example 21, 3-Cyclohexylmethoxy-5,6-dimethoxy-benzo[b]thiophene-2-carboxylic acid (1H-tetrazol-5-yl)-amide] |
| 0.037 | COc1cc2sc(C(=O)Nc3nnn[nH]3)c(OC3CCCCCC3)c2cc1OC [Example 39, 3-Cycloheptyloxy-5,6-dimethoxy-benzo[b]thiophene-2-carboxylic acid (1H-tetrazol-5-yl)-amide] |
| 0.023 | COc1cc2sc(C(=O)Nc3nnn[nH]3)c(OCCCC3CCCCC3)c2cc1OC [Example 36, 3-(3-Cyclohexyl-propoxy)-5,6-dimethoxy-benzo[b]thiophene-2-carboxylic acid (1H-tetrazol-5-yl)-amide] |
| 0.008 | COc1cc2c(OC3CCCC(C)(C)C3)c(C(=O)Nc3nn[nH]n3)sc2cc1C (stereo not drawn) [Example 5, 3-(3,3-Dimethyl-cyclohexyloxy)-5-methoxy-6-methyl-benzo[b]thiophene-2-carboxylic acid (2H-tetrazol-5-yl)-amide] |
| 0.101 | COc1cc2sc(C(=O)Nc3nnn[nH]3)c(OC3CCCCC3C)c2cc1OC (stereo not drawn) [Example 26, 5,6-Dimethoxy-3-(2-methyl-cyclohexyloxy)-benzo[b]thiophene-2-carboxylic acid (1H-tetrazol-5-yl)-amide] |
| 0.032 | 3-(3,5-Dimethyl-cyclohexloxy)-5,6-dimethoxy-benzo[b]thiophene-2-carboxylic acid (1H-tetrazol-5-yl)-amide [Example 34] |
| 0.052 | COc1cc2sc(C(=O)Nc3nnn[nH]3)c(OC3CCC(C)C(C)C3)c2cc1OC (stereo not drawn) [Example 45, 3-(3,4-Dimethyl-cyclohexyloxy)-5,6-dimethoxy-benzo[b]thiophene-2-carboxylic acid (1H-tetrazol-5-yl)-amide] |
| 0.005 | COc1cc2c(OC3CCCCCC3)c(C(=O)Nc3nn[nH]n3)sc2cc1C [Example 8, 3-Cycloheptyloxy-5-methoxy-6-methyl-benzo[b]thiophene-2-carboxylic acid (2H-tetrazol-5-yl)-amide] |
| 0.245 | CCC1(COc2c(C(=O)Nc3nnn[nH]3)sc3cc(OC)c(OC)cc23)COC1 [Example 28, 3-(3-Ethyl-oxetan-3-ylmethoxy)-5,6dimethoxy-benzo[b]thiophene-2-carboxylic acid (1H-tetrazol-5-yl)-amide] |
| 0.371 | COc1cc2sc(C(=O)Nc3nnn[nH]3)c(OCCC3CC3)c2cc1OC [Example 19, 3-(2-Cyclopropyl-ethoxy)-5,6-dimethoxy-benzo[b]thiophene-2-carboxylic acid (1H-tetrazol-5-yl)-amide] |
| 0.965 | COc1cc2c(OC3CCN(C4CCCCC4)CC3)c(C(=O)Nc3nn[nH]n3)sc2cc1C [Example 11, 3-(1-Cyclohexyl-piperdin-4-yloxy)-5-methoxy-6-methyl-benzo[b]thiophene-2-carboxylic acid (2H-tetrazol-5-yl-amide)] |
| 0.056 | COc1cc2sc(C(=O)Nc3nn[nH]n3)c(OC3CCC(C(C)(C)C)CC3)c2cc1OC (stereo not drawn) [Example 23, 3-(4-tert-Butyl-cyclohexyloxy)-5,6-dimethoxy-benzo[b]thiophene-2-carboxylic acid (2H-tetrazol-5-yl)-amide] |
| 0.35 | COc1cc2sc(C(=O)Nc3nnn[nH]3)c(OCC3CC3)c2cc1OC [Example 35, 3-Cyclopropylmethoxy-5,6-dimethoxy-benzo[b]thiophene-2-carboxylic acid (1H-tetrazol-5-yl)-amide] |
| 0.072 | COc1cc2c(OC3CCCN(C(C)=O)C3)c(C(=O)Nc3nn[nH]n3)sc2cc1C (stereo not drawn) [Example 13, 3-(1-Acetyl-piperidin-3-yloxy)-5-methyoxy-6-methyl-benzo[b]thiophene-2-carboxylic acid (2H-tetrazol-5-yl)-amide] |
| 0.101 | COc1cc2sc(C(=O)Nc3nnn[nH]3)c(OCC3CC=CCC3)c2cc1OC (stereo not drawn) [Example 32, 3-(Cyclohex-3-enylmethoxy)-5,6-dimethoxy-benzo[b]thiophene-2-carboxylic acid (1H-tetrazol-5-yl)-amide] |
| 0.028 | COc1cc2c(OCCCC3CCCCC3)c(C(=O)Nc3nn[nH]n3)sc2cc1C [Example 15, 3-(3-Cyclohexyl-propoxy)-5-Methoxy-6-methyl-benzo[b}thiophene-2-carboxylic acid (2H-tetrazol-5-yl)amide] |
| 0.063 | COc1cc2sc(C(=O)Nc3nnn[nH]3)c(OC3CCC(C)C3)c2cc1OC (stereo not drawn) [Example 31, 5,6-Dimethoxy-3-(3-methyl-cyclopentyloxy)-benzo[b]thiophene-2-carboxylic acid (1H-tetrazol-5-yl)-amide] |
| 0.101 | COc1cc2sc(C(=O)Nc3nnn[nH]3)c(OCC3CCCC3)c2cc1OC [Example 43, 3-Cyclopentylmethoxy-5,6-dimethoxy-benzo[b]thiophene-2-carboxylic acid (1H-tetrazol-5-yl)-amide] |
| 0.103 | COc1cc2sc(C(=O)Nc3nnn[nH]3)c(OC3CC(C)CC(C)C3)c2cc1OC (stereo not drawn) [Example 24, 3-(3,5-dimethyl-cyclohexyloxy)-5,6-dimethoxy-benzo[b]thiophene-2-carboxylic acid (2H-tetrazol-5-yl)-amide] |
| 0.007 | COc1cc2c(OC3CCCCC3)c(C(=O)Nc3nn[nH]n3)sc2cc1C [Example 6, 3-Cyclohexyloxy-5-methoxy-6-methyl-benzo[b]thiophene-2-carboxylic acid (2H-tetrazol-5-yl)-amide] |
| 0.072 | COc1cc2sc(C(=O)Nc3nnn[nH]3)c(OCC3CCC3)c2cc1OC [Example 38, 3-Cyclobutylmethoxy-5,6-dimethoxy-benzo[b]thiophene-2-carboxylic acid (1H-tetrazol-5-yl)-amide] |
| 0.003 | COc1cc2c(OC3CCCC(C)C3)c(C(=O)Nc3nn[nH]n3)sc2cc1C (single isomer, unassigned) [Example 7, 5-Methoxy-6-methyl-3-(3-methyl-cyclohexyloxy)-benzo[b]thiophene-2-carboxylic acid (2H-tetrazol-5-yl)-amide] |
| 0.024 | COc1cc2c(OC3CCN(C(=O)OC(C)(C)C)CC3)c(C(=O)Nc3nn[nH]n3)sc2cc1C [Example 17, 4-[5-Methoxy-6-methyl-2-(2H-tetrazol-5-ylcarbamoyl)-benzo[b]thiophene-3-yloxy]-piperidine-1-carboxylic acid tert-butyl ester] |
| 0.16 | CCC(Oc1c(C(=O)Nc2nnn[nH]2)sc2cc(OC)c(OC)cc12)C1CCCCC1 (stereo not drawn) [Example 44, 3-(1-Cyclohexyl-propoxy)-5,6-dimethoxy-benzo[b]thiophene-2-carboxylic acid (1H-tetrazol-5-yl)-amide] |

| Compound | IC50 [µM] |
| --- | --- |
| COc1cc2sc(C(=O)Nc3nnn[nH]3)c(OC3CCC3)c2cc1OC [Example 40, 3-Cyclobutoxy-5,6-dimethoxy-benzo[b]thiophene-2-carboxylic acid (1H-tetrazol-5-yl)-amide] | 0.092 |
